Experimental data reported in patent US5427999A, “Amine adducts as corrosion inhibitors” (Exxon Chemical Patents Inc., priority 1991, dated 1995).

How the values were obtained:
Skeletonema costatum [1] = details: normally a concentration of 1.3 mg/kg, 4320 min; cited from earlier work
Skeletonema costatum [2] = experiment: Marine phytoplankton inhibition of growth rate; format: cell-based, Skeletonema costatum (Greville) Cleve, Clone Skel-5; details: 72 h, control compound, measured in this test, read-out: normal growth rate, measured in this test
Experimental: Growth inhibition tests have also been carried out to assess the impact of the compounds on the, marine algae Skeletonema Costatum. This is a test which is becoming required by some offshore authorities, and is therefore of particular interest when considering the practical applications of the compounds.
Test organisms: Skeletonema costatum (Greville) Cleve, Clone Skel-5.
Incubation: 3 days at 14° C., in light/darkness cycles of 14 hrs/10 hrs.
Test samples: Aliquots of each sample are weighed into phytoplankton medium and extracted; moderate shaking for 20 hrs at 14° C.
Control compound: Na-dodecyl-sulphate. Normally a concentration of 1.3 mg/kg gives 30 to 70% of normal growth rate. Measured in this test: 30% to 55%.
Results were calculated as the concentration of compound required to inhibit 50% growth of algae during three days of exposure, termed EC50, given in mg/kg (ppm). The interval EC20 to EC80 is also given.

CCCCCCCCCCCCOS(=O)(=O)O [Na-dodecyl-sulphate]
normal growth rate, normally given by control compound (Skeletonema costatum [1]): 30 to 70% | activity at 1.3 mg/kg (Skeletonema costatum [2]): 30 to 55%
